Measurements: patent publication US9149547B2, “Process for production of heterodimers of glutamic acid” (Molecular Insight Pharmaceuticals, Inc., priority 2009, dated 2015)

What was measured:
[1] = Stability profile of final formulation at room temperature (FIG. 4); type: physicochemical; settings: 6% sodium ascorbate/ascorbic acid with 2.3% sodium gentisate in sterile water for injection, compared to formulation of PBS (pH=9.0)
Experimental: In a 5 mL vial containing [^123I]NaI was added sterile water for injection (SWFI) (50 μL), 50% sulfuric acid in SWFI (50 μL), oxidant (100 μL) (which was prepared fresh via the incubation of acetic acid (0.2 mL) and 30% hydrogen peroxide (0.335 mL) followed by dilution to a final volume of 5 mL with SWFI), acetonitrile (0.5 mL), and the trimethylstannane precursor, Sn-MIP-1095 (compound 9) (100 μL of a 1 mg/mL solution in acetonitrile). The mixture was vortexed for 1 min and allowed to incubate at room temperature for an additional 10 minutes. The reaction was quenched with 200 μL of 0.1 M sodium thiosulfate. The product was then diluted in 18 mL of SWFI and loaded onto a C18 Sep Pak Plus column. The column was washed with 60 mL SWFI to remove unreacted radioiodine and inorganic and organic salts. The Sn-MIP-1095 precursor and ^123I-MIP-1095 ester are retained on the column. ^123I-MIP-1095 ester was eluted from the column using 4 mL of ethanol, while the Sn-MIP-1095 precursor was retained on the column. The resulting solution, containing the ^123I-MIP-1095 ester, was evaporated to dryness under a stream of nitrogen and the residue was dissolved in methylene chloride (0.5 mL) and TFA (2 mL) was added to remove the ester protecting groups. The deprotection solution was incubated at room temperature for 45 minutes. […]

[2] = Stability at room temperature, free I-123 content quantitated by HPLC; type: physicochemical
Experimental: Stability Results: Stability was evaluated for up to 2 days at room temperature by quantitation of free 1-123 content present by HPLC. The stability was determined at room temperature in an attempt to accelerate any product degradation to more rapidly assess the effectiveness of each radioprotectants in the formulation matrix.

| stability profile of final formulation [1] | stability of formulation ([2]; 6% ascorbate/3% gentisate formulation, 250 mCi scale-up runs) | increase in free iodine ([2]; stored at room temperature, evaluated for up to 2 days, free I-123 by HPLC) | Structure (SMILES) |
| --- | --- | --- | --- |
| stable profile |  |  | O=C(O)CC[C@H](NC(=O)N[C@@H](CCCCNC(=O)Nc1ccc(I)cc1)C(=O)O)C(=O)O [^123I-MIP-1095, ^123I—(S)-2-(3-((S)-1-Carboxy-5-(3-(4-iodophenyl)ureido)pentyl)ureido)pentanedioic Acid] |
|  | good stability | 3-5 % per day | O=C(O)CC[C@H](NC(=O)N[C@@H](CCCCNCc1ccc(I)cc1)C(=O)O)C(=O)O [^123I-MIP-1072, ^123I—(S)-2-(3-((S)-1-carboxy-5-(4-iodobenzylamino)pentyl)ureido)pentanedioic Acid] |
